Calls of active or inactive are those of the source.

1 compound from ChEMBL document CHEMBL1146819, “Synthesis and SAR of 2-arylbenzoxazoles, benzothiazoles and benzimidazoles as inhibitors of lysophosphatidic acid acyltransferase-beta” (Bioorg Med Chem Lett, 2004) can be followed below.

One assay deals with DU-145. In words: In vitro inhibitory concentration of compound against proliferation of DU145 prostate carcinoma cells. The class given is functional, cell-based. Conditions: Homo sapiens.
In a further assay the test system is MCF7. In words: In vitro inhibitory concentration of compound against proliferation of MCF-7 breast carcinoma cells; Range is 30-40 uM. It counts as functional, cell-based. Conditions: Homo sapiens.
The target of assay [1] is T1, 1-acyl-sn-glycerol-3-phosphate acyltransferase alpha (Homo sapiens) (UniProt Q99943).
T1 sequence (whole entry): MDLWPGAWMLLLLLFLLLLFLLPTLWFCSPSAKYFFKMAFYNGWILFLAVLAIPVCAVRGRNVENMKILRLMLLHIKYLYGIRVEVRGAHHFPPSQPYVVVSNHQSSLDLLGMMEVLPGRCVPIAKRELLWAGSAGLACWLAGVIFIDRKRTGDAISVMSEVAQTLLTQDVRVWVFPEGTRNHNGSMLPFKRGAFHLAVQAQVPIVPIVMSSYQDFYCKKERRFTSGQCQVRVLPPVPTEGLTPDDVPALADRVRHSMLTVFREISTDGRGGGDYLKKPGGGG
Nature of the assay: Inhibitory activity against human lysophosphatidic acid acyltransferase-alpha (LPAAT-alpha) expressed in Sf9 insect cell membranes at <20 uM; Not active.

On to `C#CCOC(=O)Nc1ccc(Cl)c(-c2nc3cc(C(F)(F)F)ccc3s2)c1`, for which the values for the IC50 with DU-145 and with MCF7 were 20 µM and 40 µM, respectively. Besides, the result in assay [1] was inactive.

What is called IC50 is the concentration that inhibits the measured activity by half. Read a high IC50 as lower potency.
